Measurements: publication PMC3909471 (European journal of medicinal chemistry, 2013)

How the values were obtained:
[1] = target: human CB2 cannabinoid receptor (Homo sapiens, UniProt P34972); test: [3H]CP55,940 radioligand competition binding, human CB2
[2] = target: rat CB1 cannabinoid receptor (Rattus norvegicus, UniProt P20272); test: [3H]CP55,940 radioligand competition binding, rat CB1; details: removal of the methyl moiety from the N-methylpiperazine analogue
[3] = target: T1, human CB2 receptors (Homo sapiens, UniProt P34972); test: Effect on CP55,940-induced CB2 internalization in hCB2 cells; type: cell-based; details: 10 nM CP55,940 cotreated with 3 uM compound
T1 sequence (P34972 whole entry): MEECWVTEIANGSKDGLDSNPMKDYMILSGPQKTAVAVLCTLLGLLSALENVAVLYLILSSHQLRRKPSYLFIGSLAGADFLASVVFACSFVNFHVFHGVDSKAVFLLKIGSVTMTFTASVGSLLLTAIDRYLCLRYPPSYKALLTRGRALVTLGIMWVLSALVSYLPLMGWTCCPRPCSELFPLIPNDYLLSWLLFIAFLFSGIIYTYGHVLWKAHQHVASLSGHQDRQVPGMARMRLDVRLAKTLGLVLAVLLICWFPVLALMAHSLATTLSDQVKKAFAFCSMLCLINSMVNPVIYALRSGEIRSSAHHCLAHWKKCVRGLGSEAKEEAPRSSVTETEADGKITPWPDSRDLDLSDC

[4] = system: L5 and L6 spinal nerve ligation neuropathic pain model in rats; test: Spinal nerve ligation neuropathic pain model, von Frey paw withdrawal threshold; type: in vivo, rat; details: intraperitoneally 5 – 20 mg/kg
[5] = target: T1, human CB2 receptors; test: hCB2 receptor internalization; type: cell-based; details: at 10 μM as printed in text

Chain of human CB2 cannabinoid receptor (P34972 whole entry): as above
Chain of rat CB1 cannabinoid receptor (P20272 whole entry): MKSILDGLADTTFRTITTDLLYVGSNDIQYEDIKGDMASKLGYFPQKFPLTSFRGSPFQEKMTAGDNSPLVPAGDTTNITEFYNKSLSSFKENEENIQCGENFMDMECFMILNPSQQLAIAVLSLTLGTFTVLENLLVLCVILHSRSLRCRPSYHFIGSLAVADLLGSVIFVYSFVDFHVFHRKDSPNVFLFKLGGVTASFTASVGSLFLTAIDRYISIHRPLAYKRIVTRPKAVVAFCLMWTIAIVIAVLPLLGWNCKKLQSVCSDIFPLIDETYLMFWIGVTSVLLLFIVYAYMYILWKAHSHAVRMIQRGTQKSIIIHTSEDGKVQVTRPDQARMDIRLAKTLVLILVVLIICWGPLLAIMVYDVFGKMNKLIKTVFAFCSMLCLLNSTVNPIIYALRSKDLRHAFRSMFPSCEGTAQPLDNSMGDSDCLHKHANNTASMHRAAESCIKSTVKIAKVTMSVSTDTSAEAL

Question: How did the “Improvement of CB2 selectivity” value ([1]; compared to the piperidine analogue 4) turn out when `CCCCCn1c2ccccc2c2cc(C(=O)N3CCN(C)CC3)ccc21` [Compound 9, (4-Methylpiperazin-1-yl)(9-pentyl-9H-carbazol-3-yl)methanone] was run?
Answer: Its value is 3 fold.

Question: With `CCCCCn1c2ccccc2c2cc(C(=O)N3CCNCC3)ccc21` [Compound 15, (9-Pentyl-9H-carbazol-3-yl)(piperazin-1-yl)methanone] as the compound, how does the “Decrease of CB1 affinity” value [2] read?
Answer: The value was 4 fold.

Question: `CCCCCn1c2ccccc2c2cc(C(=O)c3ccccc3)ccc21` [Compound 18, (9-Pentyl-9H-carbazol-3-yl)(phenyl)methanone] was tested. Which “Reduction of hCB2 internalization induced by CP55,940” value (from here on “Reduction”) [3] did it give?
Answer: Its value is “more than 50%”.

Question: For `CCCCCn1c2ccccc2c2cc(C(=O)NCC(C)(C)C)ncc21` [Compound 35, N-(2,2-dimethylpropyl)-9-pentyl-9H-pyrido[3,4-b]indole-3-carboxamide], which “Reduction” value [3] is on record?
Answer: The value was “more than 50%”.

Question: `CS(=O)(=O)NCCCn1c2ccccc2c2cc(C(=O)N3CCCCC3)ccc21` [Compound 64, N-(3-(3-(Piperidine-1-carbonyl)-9H-carbazol-9-yl)propyl)methanesulfonamide] was tested. Which “Tactile allodynia (paw withdrawal threshold, von Frey filaments)” value [4] did it give?
Answer: Its value is “significantly attenuated tactile allodynia in a dose-dependent manner”.

Question: `O=C(c1ccc2c(c1)c1ccccc1n2Cc1ccncc1)N1CCCCC1` [Compound 74, Piperidin-1-yl(9-(pyridin-4-ylmethyl)-9H-carbazol-3-yl)methanone] was tested. Which “Improvement in CB2 selectivity” value ([1]; 4-methylpyridine replacing the 4-methyltetrahydropyran fragment (vs 69)) did it give?
Answer: Its value is 4 fold.

Question: Which “Reduction” value [3] does the source give for `CCCCCn1c2ccc(C(=O)N3CCCCC3)cc2c2ccc(OC)cc21` [Compound 81, (7-Methoxy-9-pentyl-9H-carbazol-3-yl)(piperidin-1-yl)methanone] here?
Answer: Its value is “reduced compound CP55,940-induced internalization”.

Question: What about the CB2 internalization [5] of the same compound?
Answer: Its CB2 internalization is “failed to internalize CB2”.
